Results as given in US7989464B2, “mGluR1 antagonists as therapeutic agents” (Schering Corporation, priority 2004, dated 2011).
Read-outs that look alike come from different tables or passages of the source.

Molecular target: T1, hmGluR1 receptor (Homo sapiens, UniProt Q13255)
T1 construct: expressed in transfected cells
Assay: IC50 determination: intracellular calcium mobilization (FLIPR) upon Quisqualate stimulation in CHO cells stably expressing hmGluR1
Type: cell-based
Details: against Quisqualate 1 μM (EC80)
Procedure, shortened: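 CHO cells stably expressing hmGluR1 were kept overnight in DMEM high glucose with GPT and 1 mM pyruvate, then loaded 2 h with Calcium 3 dye.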

[1] = FLIPR calcium mobilization, read-out: IC50 Class
[2] = class symbols, read-out: mGIuR 1 IC50

T1 sequence (Q13255 19-1194): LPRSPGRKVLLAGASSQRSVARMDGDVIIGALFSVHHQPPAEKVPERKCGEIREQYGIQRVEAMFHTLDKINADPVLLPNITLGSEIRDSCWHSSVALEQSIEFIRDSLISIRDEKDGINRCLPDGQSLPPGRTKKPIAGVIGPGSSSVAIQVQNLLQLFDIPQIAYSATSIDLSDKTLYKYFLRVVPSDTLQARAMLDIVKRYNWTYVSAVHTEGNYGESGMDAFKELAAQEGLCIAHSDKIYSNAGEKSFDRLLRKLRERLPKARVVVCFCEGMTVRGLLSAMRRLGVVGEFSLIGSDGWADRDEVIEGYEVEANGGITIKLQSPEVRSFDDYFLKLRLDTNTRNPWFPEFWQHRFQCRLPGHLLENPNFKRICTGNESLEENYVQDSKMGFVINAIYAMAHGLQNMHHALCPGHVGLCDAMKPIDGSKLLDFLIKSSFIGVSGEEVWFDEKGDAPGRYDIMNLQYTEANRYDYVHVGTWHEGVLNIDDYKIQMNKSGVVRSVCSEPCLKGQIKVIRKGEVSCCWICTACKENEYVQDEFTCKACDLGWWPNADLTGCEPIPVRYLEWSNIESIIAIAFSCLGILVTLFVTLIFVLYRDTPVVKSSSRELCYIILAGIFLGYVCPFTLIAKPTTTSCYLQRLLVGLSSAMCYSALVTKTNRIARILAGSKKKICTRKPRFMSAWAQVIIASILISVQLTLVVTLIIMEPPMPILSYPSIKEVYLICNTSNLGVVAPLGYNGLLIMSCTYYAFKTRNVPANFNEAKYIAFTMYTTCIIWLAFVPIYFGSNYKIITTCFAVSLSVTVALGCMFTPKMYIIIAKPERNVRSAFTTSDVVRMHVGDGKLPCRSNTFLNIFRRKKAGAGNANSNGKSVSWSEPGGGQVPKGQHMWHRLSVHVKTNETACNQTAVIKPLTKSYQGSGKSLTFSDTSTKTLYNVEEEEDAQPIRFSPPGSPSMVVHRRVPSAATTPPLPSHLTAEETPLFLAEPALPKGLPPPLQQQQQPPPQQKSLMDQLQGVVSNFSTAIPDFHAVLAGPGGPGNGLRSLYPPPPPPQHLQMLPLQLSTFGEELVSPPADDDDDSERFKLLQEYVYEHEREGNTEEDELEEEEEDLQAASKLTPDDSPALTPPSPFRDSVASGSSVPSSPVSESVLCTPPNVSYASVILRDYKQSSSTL

| SMILES | IC50 [1] | IC50 [2] | further results |
| --- | --- | --- | --- |
| COc1ccc(Nc2ncnc3sc4c(=O)n(C5CC5)cnc4c23)cc1 [95GL] | 150 to 1000 nM |  |  |
| C#CCNc1ncnc2sc3c(=O)n(-c4ccc(C)cc4)cnc3c12 [95EH] | < 50 nM |  |  |
| CN(C)c1c(C(N)=O)cnc2sc3c(=O)n(C4CCCCC4)cnc3c12 [compound 49] |  | > 1000 nM |  |
| CNc1ncnc2sc3c(=O)n(-c4ccc(OC)cc4C)cnc3c12 [95BH] | < 50 nM |  |  |
| C=C(C)CNc1ncnc2sc3c(=O)n(-c4ccc5scnc5c4)cnc3c12 [95FC] | < 50 nM |  |  |
| C#CCOc1nncc2sc3c(=O)n(-c4ccc(C)cc4)cnc3c12 [167E] | > 1000 nM |  |  |
| O=c1c2sc3nccc(CC4CC4)c3c2ncn1-c1ccc(Cl)cc1 [compound 179] | 150 to 1000 nM |  |  |
| CN(C)c1ccnc2sc3c(=O)n(N4CC5CCCC5C4)cnc3c12 (stereo not shown) [60E] |  | < 50 nM |  |
| O=c1c2sc3nccc(O)c3c2ncn1C1CCCCC1 [26A] |  | > 1000 nM |  |
| CCCNc1ncnc2sc3c(=O)n(-c4ccc(C)cc4)cnc3c12 [95FG] | < 50 nM |  |  |
| Cc1ccc(-n2cnc3c(sc4nccc(NC5CCOCC5)c43)c2=O)cc1 [28DG] | 150 to 1000 nM |  |  |
| O=c1c2sc3nccc(NC4CC4)c3c2ncn1-c1ccc(OS(=O)(=O)C(F)(F)F)cc1 [28HT] | > 1000 nM |  |  |
| O=c1c2sc3nccc(OCC4CC4)c3c2ncn1-c1ccc(Br)cc1 [66L] | 150 to 1000 nM |  |  |
| COc1ccc(-n2cnc3c(sc4nccc(NC5CC5)c43)c2=O)cc1 [28AL] |  | < 50 nM |  |
| CC(O)CCNc1ccnc2sc3c(=O)n(-c4ccc(Br)cc4)cnc3c12 (stereo not shown) [28HO] | < 50 nM |  |  |
| COCCn1cnc2c(sc3ncnc(N(C)C)c32)c1=O [95EA] | > 1000 nM |  |  |
| C=CCNc1ncnc2sc3c(=O)n(-c4ccc(Br)cc4)cnc3c12 [95BO] | < 50 nM |  | IC50 (FLIPR calcium mobilization, read-out: mGluR1 IC50): 1.54 nM |
| CCNc1ncnc2sc3c(=O)n(-c4ccc5scnc5c4)cnc3c12 [95BJ] | < 50 nM |  |  |
| O=c1c2sc3ncnc(NC4CC4)c3c2ncn1-c1ccc2ncsc2c1 [95AZ] | < 50 nM |  |  |
| O=c1c2sc3nccc(NCCCO)c3c2ncn1-c1ccc2c(c1)OCCO2 [28CI] | < 50 nM |  |  |
| CNc1ccnc2c1c1ncn(-c3ccc(C)cc3)c(=O)c1n2Cc1ccc(OC)cc1 [134I] |  | > 1000 nM |  |

Further lines, with some results ahead:

| IC50 [1] | IC50 [2] | SMILES | further results |
| --- | --- | --- | --- |
| < 50 nM |  | CCNc1ccnc2sc3c(=O)n(-c4ccc5occc5c4)cnc3c12 [28BG] |  |
| < 50 nM |  | C=C(C)CNc1ccnc2sc3c(=O)n(-c4ccc(C)cc4)cnc3c12 [28EW] |  |
|  | > 1000 nM | Cc1ccc(-n2cnc3c(sc4nccc(C(N)=O)c43)c2=O)cc1 [compound 76] |  |
|  | < 50 nM | CCNc1ccnc2sc3c(=O)n(-c4ccc5c(c4)OCO5)cnc3c12 [131E] |  |
|  | > 1000 nM | CC#CCOc1ccnc2sc3c(=O)n(-c4ccc(C)cc4)cnc3c12 [66B] |  |
|  | < 50 nM | CN(C)c1ccnc2sc3c(=O)n(-c4ccsc4)cnc3c12 [15AA] |  |
|  | < 50 nM | Cc1cc(N(C)C)c2c(n1)sc1c(=O)n(-c3ccccc3)cnc12 [7DB] |  |
|  | < 50 nM | CN(C)c1ccnc2sc3c(=O)n(-c4ccc(C5CC5)cc4)cnc3c12 [137A] |  |
|  | 50 to 150 nM | CN(C)c1ccnc2sc3c(=O)n(C4CCOCC4)cnc3c12 [15E] |  |
|  | 150 to 1000 nM | C=CCn1cnc2c(sc3nccc(N(C)C)c32)c1=O [7AB] |  |
|  | < 50 nM | CCN(C)c1ncnc2sc3c(=O)n(-c4ccc5ncsc5c4)cnc3c12 [95I] |  |
|  | < 50 nM | CN(C)c1ccnc2sc3c(=O)n(-c4ccc(Br)cc4)cnc3c12 [7H] |  |
|  | < 50 nM | Cc1cc(N(C)C)c2c(n1)sc1c(=O)n(-c3ccc(F)cc3)cnc12 [7DC] |  |
| < 50 nM |  | O=c1c2sc3nccc(NCCO)c3c2ncn1-c1ccc(Cl)cc1 [28GB] |  |
|  | 150 to 1000 nM | CN(C)c1ccnc2sc3c(=O)n(Cc4ccco4)cnc3c12 [15H] |  |
| < 50 nM |  | CCN(C)c1ccnc2sc3c(=O)n(-c4ccc5c(c4)OCO5)cnc3c12 [28IE] |  |
|  | < 50 nM | CN(C)c1ccnc2sc3c(=O)n(CC4CCCCC4)cnc3c12 [15C] |  |
|  | 50 to 150 nM | Cc1noc(-n2cnc3c(sc4nccc(N(C)C)c43)c2=O)c1C [15AD] |  |
|  | < 50 nM | CN(C)c1ccnc2sc3c(=O)n(-c4ccc5ncsc5c4)cnc3c12 [7AS] |  |
| > 1000 nM |  | CN(N)c1ccnc2sc3c(=O)n(-c4ccc(Cl)cc4)cnc3c12 [28DM] |  |
|  | < 50 nM | CNc1ccc(-n2cnc3c(sc4nccc(N(C)C)c43)c2=O)cc1 [7CF] |  |
| < 50 nM |  | CCNc1ccnc2sc3c(=O)n(-c4cccc(F)c4)cnc3c12 [28CQ] |  |
| 150 to 1000 nM |  | Cc1ccc(-n2cnc3c(sc4nccc(NCc5cccs5)c43)c2=O)cc1 [28EQ] |  |
|  | < 50 nM | Cc1cc(F)cc(-n2cnc3c(sc4nccc(N(C)C)c43)c2=O)c1 [7DX] |  |
| < 50 nM |  | COc1ccc(-n2cnc3c(sc4ncc(F)c(N(C)C)c43)c2=O)cc1 [compound 192] |  |
|  | 50 to 150 nM | CN(C)c1cc[n+]([O-])c2sc3c(=O)n(-c4ccc(Cl)cc4)cnc3c12 [12B] |  |
|  | < 50 nM | CN(C)c1ccnc2sc3c(=O)n(-c4ccc(O)cc4)cnc3c12 [7AK] |  |
